Results: patent US20250270513A1, “METHOD FOR PRODUCING CULTURED TISSUE, AND PREPARATION FOR EXTERNAL APPLICATION” (National University Corporation Ehime University, priority 2019, published 2025)

What was measured:
[1] = tested on: keratinocytes on layered dermal cell structure containing fibroblasts; assay: Large scale three-dimensional cultured tissue, confluent keratinocyte sheet, gas-liquid interface culture (Test Example 2); format: cell-based, human; details: 100 mg/mL trehalose in dermal cell structure; confluent keratinocyte sheet of about 1 cm; 75 mm insert; 5 days
Procedure: • (1) A layered dermal cell structure containing trehalose at a final concentration of 0 or 100 mg/mL was prepared according to the method (1) of Test Example above except that 10 mL of the gel solution I was added to a cell culture insert with a diameter of 75 mm, and 32 mL of the gel solution containing fibroblasts at the same cell density as in (1) was layered. • (2) A ring with a diameter of 1 cm was placed on the obtained collagen gel, and keratinocytes were seeded inside the ring and cultured in MCDB Type-II-EGM (1:1) medium for 2 days. As a result, a sheet of keratinocytes (epithelial cell layer) with a diameter of about 1 cm is formed on the collagen gel. • (3) When the keratinocytes became confluent, the ring was removed and the medium was replaced with CM medium, and gas-liquid interface culture was performed for 5 days in the same manner as in the method (3) of Test Example 1.

[2] = tested on: wound with a diameter of 6 mm on the back of C57BL/6 mice; assay: In vivo test of effect of trehalose on skin wound (Test Example 6); design: species or system mouse
Procedure: In order to verify an effect of trehalose on skin wounds, in vivo test using mice was performed. The method is shown below. • (1) 15 week old C57BL/6 mice were anesthetized, the back was extensively depilated, then the skin of the back was pinched and overlaid, and a wound with a diameter of 6 mm was prepared with a biopsy trepan. • (2) Wound mice were divided into 2 groups of 6 mice each, and 100 mg of an agent composed only of Vanicream (Pharmaceutical Specialties, INC) as a base was applied to a control group, and 100 mg of an agent composed of 10% by mass trehalose and Vanicream as a base was applied to a trehalose treatment group once a day. • (3) Images of each wound up to 9 days after wound formation and the area of each wound were recorded, respectively.

[3] = tested on: human normal skin keratinocytes on collagen gel containing normal human skin fibroblasts (NHDF); assay: Three-dimensional cultured skin on a sugar-containing dermal cell structure (Test Example 1); format: cell-based
Procedure: Subsequently, about 1 mL of the gel obtained was poured into a transwell-collagen coated insert (catalog number: 3492, manufactured by Costar; pore size: 3.0 μm, surface area: 4.67 cm^2), which is a cell culture insert, and allowed to stand in an incubator for 5 minutes or more. 5 mL of DMEM containing 10 v/v % FCS and 1 v/v % ABAM (Antibiotics-Antimycotic solution, 100×, manufactured by ThermoFisher Scientific Inc.) in which normal human skin fibroblasts (NHDF, manufactured by Cambrex Corporation) were suspended at a cell density of 5×10^5 cells/mL was added to 29 mL of the gel solution I. About 3.5 mL of a gel solution containing the cells was added to the cell culture insert, and the mixture was allowed to stand in a 37° C. incubator for 30 minutes to gel.
(§1) • (2) Next, the collagen gel (layered dermal cell structure) containing NHDF was pre-cultured for 5 days using a DMEM medium containing 50 μg/ml ascorbic acid, 10 v/v % FCS, and 1 v/v % ABAM. Next, human normal skin keratinocytes suspended in MCDB medium were seeded on the collagen gel surface so as to be 1.28×10^5 cells/cm^2, and a medium obtained by mixing equal amounts of MCDB Type-II medium (Growth Medium 2 in JP-B2-3066624) and EGM was added to an external liquid of the cell culture insert and the inside of the insert, followed by culturing at 37° C. for 2 days.
• (3) The medium was replaced with a cornification medium (CM medium), and the cell culture insert was placed such that a porous membrane of the cell culture insert was located at a gas-liquid interface of the cornification medium. In this state, the cells were subjected to gas-liquid interface culture at 37° C. for 7 to 14 days to induce differentiation, thereby obtaining three-dimensional cultured skin. The medium was replaced every two days from the start of the culture.

[4] = tested on: human normal skin keratinocytes; assay: Culture of keratinocytes alone without collagen gel containing fibroblasts (Test Example 1); format: cell-based; details: 100 mg/mL trehalose in medium, no fibroblast collagen gel
Procedure: as §1
On the other hand, when 100 mg/mL trehalose was added to the medium of (2) without collagen gel containing fibroblasts and culture was performed with keratinocytes alone, formation of epithelial tissue layer was not observed as in the absence of trehalose.

[5] = tested on: NHDF (normal human skin fibroblasts); assay: Monolayer culture of fibroblasts, optical microscope observation (Test Example 3-1); format: cell-based; details: 24 hours monolayer
β-actin = assay: Western blotting of β-actin in fibroblasts (Test Example 3-1); format: cell-based, human; details: 0, 10, 100 mg/mL trehalose in medium, 24 hours
Procedure: The cells were further DNA-stained with PI and subjected to FCM, and the proportion of each cell cycle was examined.
(3) Furthermore, proteins were extracted from the fibroblasts obtained in (1) using RIPA buffer (1% protein inhibitor (manufactured by SIGMA)+Phosphatase Inhibitor cocktail (manufactured by SIGMA)). Then, 10 μg of protein per sample was separated by SDS-PAGE by a conventional method, transferred to a PVDF membrane, and then subjected to Western blotting. Phosphorylated ERK1/2 and phosphorylated AKT were detected by ECL Prime Western Blotting Detection Reagent (manufactured by GE Healthcare), using Phospho-p44/p42 MAPK (Erk1/2) (Thr202/Tyr204) (D13.14.4E) XP Rabbit mAb (#4300, Cell Signaling) and Phospho-Akt (Ser473) antibody (#9271, manufactured by Cell Signaling Technology) as a primary antibody, and an anti-rabbit IgG antibody and an anti-mouse IgG antibody manufactured by PROMEGA were used as secondary antibodies, and visualized by Image Quant LAS4010 (manufactured by GE Healthcare).

[6] = tested on: three-dimensional cultured skin (dermal tissue layer fibroblasts); assay: Staining test of tissue sections of three-dimensional cultured skin (Test Example 1); format: cell-based, human
Source text: • (4) The obtained tissue sections of each three-dimensional cultured skin were stained with HE, EVG, HABP, K10, K5, Alcian blue, SMA and Ki67 by a conventional method. For Ki67 staining, a Ki67 antibody (manufactured by Novocastra Laboratories Ltd) and a secondary antibody (manufactured by Vector Laboratories) were used.

[7] = culture to which trehalose was added

Q: `OC[C@H]1O[C@H](O[C@H]2O[C@H](CO)[C@@H](O)[C@H](O)[C@H]2O)[C@H](O)[C@@H](O)[C@@H]1O` [trehalose, α, α-trehalose] was tested. Which “expansion of the epithelial tissue layer during gas-liquid interface culture” value [1] did it give?
A: expanded to the outer edge of the culture insert

Q: And the “recovery of wounds compared to control group” value ([2]; 100 mg of agent of 10% by mass trehalose and Vanicream, applied once a day)?
A: significantly faster

Q: And the “day on which wound epithelialized” value ([2]; 10% by mass trehalose in Vanicream, once a day)?
A: 4 days

Q: And the wound area ([2]; 10% by mass trehalose in Vanicream, once a day, after 1 day)?
A: remarkably reduced

Q: And the “difference between groups in wound area (two-way ANOVA, p<0.001)” value ([2]; each point of days 2 to 6, n=6 in each group)?
A: significant differences

Q: What about the “area of the epithelial tissue layer formed” value ([3]; 10 mg/mL trehalose added to collagen gel containing fibroblasts, compared to no trehalose) of the same compound?
A: slightly enlarged

Q: What about the “area of the epithelial tissue layer formed” value ([3]; 100 mg/mL trehalose added to collagen gel containing fibroblasts) of the same compound?
A: extended to the outer edge of the insert and further expanded to protrude to the outside of the insert

Q: And the “contraction of the collagen gel” value [3, 7]?
A: not observed

Q: What about the “wrinkles and rumples of the sheet-like epithelial tissue layer” value [3, 7] of the same compound?
A: without wrinkles and rumples

Q: What about the “formation of epithelial tissue layer” value [4] of the same compound?
A: not observed

Q: What about the “increase in the number of cells” value ([5]; 10 mg/mL trehalose) of the same compound?
A: slightly suppressed

Q: And the “appearance of damage to cells” value ([5]; 100 mg/mL trehalose)?
A: no appearance of any damage

Q: And the cell morphology ([5]; 100 mg/mL trehalose)?
A: the number of spindle-shaped cells was large

Q: What about the “increase in the number of cells” value ([5]; 100 mg/mL trehalose) of the same compound?
A: further suppressed

Q: And the “synthesis amount of β-actin” value (β-actin)?
A: increased depending on the amount of trehalose

Q: And the “Ki67 positive cells in the dermal tissue layer” value ([6]; 0, 10, 100 mg/mL trehalose)?
A: increased as the concentration of trehalose increased

Q: And the “difference in staining pattern depending on the concentration of trehalose” value ([6]; HE, EVG, HABP, K10, K5, Alcian blue, SMA stains (all except Ki67), 0, 10, 100 mg/mL)?
A: no difference
